Results: US20230143751A1, “Aromatic Compound And Use Thereof In Preparing Antineoplastic Drugs” (Shanghai Zheye Biotechnology Co. Ltd., priority 2020, published 2023)

Experiments:
[1] = test system: NCI-H358; experiment: Cell proliferation inhibitory activity on NCI-H358, 3D model test (agarose colony formation); format: cell-based; conditions: for anti-cell proliferation activity against KRAS G12C mutant type cells NCI-H358 (in words): 3D model test; for IC50: Homo sapiens, NCI-H358, 3D agarose colony formation, NBT staining
Description: 100 μl of agarose gel with a high concentration was spread in a 96-well plate as the bottom agarose gel layer. Agarose with a low concentration and growth medium containing cells were mixed and then spread on the bottom agar layer, cooled and solidified, then incubated overnight at 37° C. Mother solutions were prepared from the test compounds by using DMSO, and then subjected to gradient elution with RPMI 1640 growth medium. The solutions of test compounds with different concentrations after gradient elution were added to the 96-well plate comprising an upper layer of agar gel-cells. Solvent control well was set up and the plate was incubated in a CO2 incubator. The drug-containing medium was changed during the incubation period and the cell growth situation was observed. After the incubation, the cells were stained with NBT and the number of cell colony formation was counted, and the IC50 values of the compounds inhibiting cell proliferation were derived.

[2] = test system: MIA PaCa-2 cells; experiment: Cell proliferation activity of MIA PaCa-2 by CellTiter-Glo reagent; format: cell-based; conditions: 72 h, CellTiter-Glo; for IC50: Homo sapiens, MIA PaCa-2, read-out: IC50 value of cell proliferation inhibitory activity of the compound on MIA PaCa-2
Description: (§1) MIA PaCa-2 cells in exponential growth phase were digested with trypsin-EDTA, plated in a 96-well plate with 2000-3000 cells per well, and incubated overnight at 37° C. with 5% CO2. Mother solutions were prepared from the test compounds by using DMSO, subjected to gradient elution with DMEM growth medium, and then added into the 96-well plate and incubated in an incubator for 72 h at 37° C. with 5% CO2. After the incubation, CellTiter-Glo test reagent with an equal volume was added into each well and the obtained 96-well plate was incubated after shaking. The chemiluminescence values were determined by microplate reader, and the IC50 values of the test compounds inhibiting the proliferation of MIA PaCa-2 cells were fitted and calculated by GraphPad Prism software.
The test method of inhibitory activity was the same as that in Test 2 in “Biological Tests” part.

[3] = test system: NCI-H358 cells; experiment: Cell proliferation activity of NCI-H358 by CellTiter-Glo reagent; format: cell-based; conditions: for IC50: Homo sapiens, NCI-H358, test 8, method of test 3, read-out: IC50 of proliferation inhibitory activity of the compound on NCI-H358 cell line
Description: as §1, with “NCI-H358” for “MIA PaCa-2”, “Mother solutions were prepared from the test compounds by using DMSO, subjected to gradient elution with DMEM growth medium, and then added into the 96-well plate and incubated in an incubator for 72 h at 37° C. with 5% CO2.” left out
The test method of inhibitory activity was the same as that in Test 3 in “Biological Tests” part.

[4] = Preliminary safety test, 5-day escalating oral dosing in Balb/c mice; format: in vivo; conditions: for water and food intake, activity and body weight during the administration period (in words): oral gavage once a day for 5 days, 200 to 800 mg/kg; for MTD at 5 days: both sexes, mouse, in vivo, oral gavage, initially suggested, read-out: maximum tolerated dose
Description: Test samples: Compound 3-2, Compound 3-6, Compound 3-12M, Compound 3-20, and Compound 4-8.
Animal species and number: Balb/c; 6 animals per group (half male and half female).
(§2) Administration mode: oral administration by gavage.
Animal grouping and administration dose: vehicle blank group, Compound 3-2 group (200 mg/kg, 400 mg/kg, 800 mg/kg), Compound 3-6 group (200 mg/kg, 400 mg/kg, 800 mg/kg), Compound 3-12M group (200 mg/kg, 400 mg/kg, 800 mg/kg), Compound 3-20 group (200 mg/kg, 400 mg/kg, 800 mg/kg), Compound 4-8 group (200 mg/kg, 400 mg/kg, 800 mg/kg).
Administration frequency: once a day for 5 days.
General clinical observations were performed 2 times a day (once in the morning and once in the afternoon) during the test period. Death, morbidity, respiration, secretions, feces, and diet, drinking situation and so on were observed, and the changes in body weight of the mice during the administration period were recorded. The animals in each group were euthanized after the administration, and all animals were dissected and subjected to gross observation.

[5] = test system: MIA PaCa-2-derived xenograft tumor; experiment: Pharmacodynamics test of MIA PaCa-2-derived xenograft tumor model in nude mice (test 6); format: in vivo; conditions: for inhibition effect on the growth of subcutaneously transplanted tumors derived from pancreatic cancer MIA paca-2 cells in nude mice (in words): 10 mg/kg QD×15 days; for Tumor inhibition rate (%): MIA PaCa-2 xenograft, nude mice, 10 mg/kg oral gavage QD×15 days
Description: Animal species and number: Balb/c Nude; 6 animals per group.
Test samples: Compound 3-2, Compound 3-6, Compound 3-20, Compound 3-12M.
Test groups: blank solvent control group; Compound 3-2 (10 mg/kg, QD×15 days), Compound 3-6 (10 mg/kg, QD×15 days), Compound 3-20 (10 mg/kg, QD×15 days), Compound 3-12M (10 mg/kg, QD×15 days).
Animal model establishment: MIA paca-2 tumor cells in logarithmic growth phase were cultured in vitro and collected, and inoculated subcutaneously into the right back of nude mice at a quantity of 5×10^6 cells/each. When the tumor volume reached 150-300 mm^3, the tumor-bearing nude mice were randomly grouped. Subsequently, the animals in each group were administered, and the day of the first administration was defined as day 1 of the test.
Administration route and frequency: oral administration by gavage; once a day.
General state observation: observation time and frequency: once a day; observation indexes or contents: including but not limited to administration location, appearance and signs, general behavioral activities, mental status, death and other abnormal performance of the animals. The animals were euthanized at the end of the test.
Tumor volume calculation: V=½×long diameter×short diameter^2 (mm^3). Tumor growth inhibition rate TGI (%) is used to evaluate the tumor inhibition efficacy of the compounds. TGI (%)=[1−(mean tumor volume in treatment group at the end of administration−mean tumor volume in treatment group at the beginning of administration)/(mean tumor volume in control group at the end of administration−mean tumor volume in control group at the beginning of administration)]×100%.

[6] = molecular target: KRAS G12C (Homo sapiens, UniProt P01116, G12C); experiment: Effect on KRAS(G12C) enzyme activity (KRAS G12C/c-Raf binding, Eu/d2 energy transfer); format: biochemical
KRAS G12C, sequence (P01116 1-188 isoform P01116-2 G12C): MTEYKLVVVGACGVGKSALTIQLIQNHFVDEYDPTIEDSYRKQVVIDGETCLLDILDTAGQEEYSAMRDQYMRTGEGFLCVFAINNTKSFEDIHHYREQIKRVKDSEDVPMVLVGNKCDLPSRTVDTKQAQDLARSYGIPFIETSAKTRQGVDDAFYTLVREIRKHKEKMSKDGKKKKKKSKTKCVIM
Description: Compound stock solution was taken, and the test compound was subjected to gradient elution in DMSO. The above diluted compound was added into a quantitative volume of enzyme reaction buffer and subjected to oscillation on a microplate oscillator for 20 min.
4 μL of enzyme was transferred to a 384-well reaction plate. 1 μL of the test compound was added into the 384-well reaction plate. The plate was sealed with sealing film, and the reaction plate with the compound was centrifuged at 1000 rpm for 1 min and incubated for 60 min. 5 μL of a mixture of substrate and antibody was transferred to the 384-well reaction plate. The plate was sealed with sealing film, then centrifuged at 1000 rpm for 1 min and incubated for 120 min at room temperature.
Ratiopositive control: average value of the ratios of 10 positive control wells; Rationegative control: average value of the ratios of 10 negative control wells.

[7] = Acute toxicity test, single oral dose in SD rats; format: in vivo; conditions: rat, in vivo
Description: (§3) Test samples: Compound 3-2, and Compound 3-6.
(§4) Animal species and number: SD rat; 6 animals per group (half male and half female).
as §2
Animal grouping and administration dose: vehicle blank group, Compound 3-2 group (500 mg/kg, 1000 mg/kg, 2000 mg/kg), Compound 3-6 group (500 mg/kg, 1000 mg/kg, 2000 mg/kg).
Administration frequency: once.
(§5) Death, morbidity, respiration, secretions, feces, and diet, drinking situation and so on were observed, and the changes in body weight of the rats during the administration period were recorded. The contents of detailed clinical observation included but were not limited to behavioral activity, skin, coat, eyes, ears, nose, abdomen, external genitalia, anus, extremities, feet, and respiration. The animals in each group were euthanized at the end of observation period, and all animals were dissected and subjected to gross observation.

[8] = Safety test for repeated administration for 14 days in SD rats; format: in vivo; conditions: oral gavage once a day for 14 days, 50, 150, 400 mg/kg
Description: as §3, §4, §2
Animal grouping and administration dose: vehicle blank group, Compound 3-2 group (50 mg/kg, 150 mg/kg, 400 mg/kg), Compound 3-6 group (50 mg/kg, 150 mg/kg, 400 mg/kg).
Administration frequency: once a day for 14 days.
as §5, with “General clinical observations were performed 2 times a day (once in the morning and once in the afternoon) during the test period. Death,” for “Death,”, “of administration” for “of observation”

[9] = test system: NCI-H358-derived xenograft tumor; experiment: Pharmacodynamics study of NCI-H358-derived xenograft tumor model, combination with Afatinib or Trametinib (test 10); format: in vivo, nude mice; conditions: i.g. QD×21 days, 3-2 10 mg/kg, Afatinib 10 mg/kg, Trametinib 0.1 mg/kg
Description: Animal species and number: Balb/c Nude; 6 animals per group. Test samples: […] Test groups: blank solvent control group; […] NCI-H358 tumor cells in logarithmic growth phase were cultured in vitro and collected, and inoculated subcutaneously into the right back of nude mice at a quantity of 5×10^6 cells/each. When the tumor volume reached 150-300 mm^3, the tumor-bearing nude mice were randomly grouped. Subsequently, the animals in each group were administered, and the day of the first administration was defined as day 1 of the test. Administration frequency: once a day. General state observation: observation time and frequency: once a day; observation indexes or contents: including but not limited to administration location, appearance and signs, general behavioral activities, mental status, death and other abnormal performance of the animals. The animals were euthanized at the end of the test. Tumor volume calculation: V=½×long diameter×short diameter^2 (mm^3).

[10] = test system: Chinese hamster lung fibroblasts (CHL cells); conditions: from N Engl J Med 2020;383:1207-1217 supporting information; cited from earlier work
[11] = molecular target: T1, human-derived MDR1 (MDR1 coding P-gp) transporter protein (Homo sapiens, UniProt P08183); conditions: from N Engl J Med 2020;383:1207-1217 supporting information; cited from earlier work
T1 construct: expressed in transfected cells; host or cells: membrane vesicles expressing human MDR1
T1 sequence (P08183 whole entry): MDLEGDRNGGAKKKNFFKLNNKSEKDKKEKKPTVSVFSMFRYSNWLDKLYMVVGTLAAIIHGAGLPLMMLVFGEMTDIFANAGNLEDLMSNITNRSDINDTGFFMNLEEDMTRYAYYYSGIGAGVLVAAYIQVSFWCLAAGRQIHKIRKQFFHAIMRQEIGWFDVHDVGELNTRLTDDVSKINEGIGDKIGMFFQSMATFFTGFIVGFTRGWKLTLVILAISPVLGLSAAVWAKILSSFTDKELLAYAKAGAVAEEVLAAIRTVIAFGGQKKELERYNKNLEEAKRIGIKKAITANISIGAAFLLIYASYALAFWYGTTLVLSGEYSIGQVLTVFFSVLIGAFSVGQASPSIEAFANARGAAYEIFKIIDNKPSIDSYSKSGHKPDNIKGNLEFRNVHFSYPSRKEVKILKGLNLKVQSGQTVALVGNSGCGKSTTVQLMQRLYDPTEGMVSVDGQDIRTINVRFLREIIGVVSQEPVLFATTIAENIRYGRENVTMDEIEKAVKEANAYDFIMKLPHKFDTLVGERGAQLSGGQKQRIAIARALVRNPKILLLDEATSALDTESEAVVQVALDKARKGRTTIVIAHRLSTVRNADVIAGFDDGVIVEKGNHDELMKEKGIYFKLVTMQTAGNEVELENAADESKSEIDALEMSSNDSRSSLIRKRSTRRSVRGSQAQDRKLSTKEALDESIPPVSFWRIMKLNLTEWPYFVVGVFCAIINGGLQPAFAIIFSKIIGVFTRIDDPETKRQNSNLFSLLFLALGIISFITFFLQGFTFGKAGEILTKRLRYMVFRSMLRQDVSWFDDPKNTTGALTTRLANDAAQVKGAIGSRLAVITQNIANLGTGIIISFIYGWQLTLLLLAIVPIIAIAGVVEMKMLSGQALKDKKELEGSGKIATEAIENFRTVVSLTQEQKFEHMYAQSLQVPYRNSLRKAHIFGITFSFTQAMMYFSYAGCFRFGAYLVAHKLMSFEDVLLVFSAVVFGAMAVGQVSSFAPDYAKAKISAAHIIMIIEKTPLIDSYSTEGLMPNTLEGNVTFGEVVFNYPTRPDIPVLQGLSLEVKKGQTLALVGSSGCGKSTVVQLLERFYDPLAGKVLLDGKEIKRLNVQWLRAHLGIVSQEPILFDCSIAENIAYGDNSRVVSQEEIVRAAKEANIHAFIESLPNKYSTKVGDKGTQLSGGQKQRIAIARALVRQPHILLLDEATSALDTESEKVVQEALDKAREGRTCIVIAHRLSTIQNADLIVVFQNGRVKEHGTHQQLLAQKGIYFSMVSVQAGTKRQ

In the case of [2H]C([2H])=Cc1cccc(F)c1-c1nc2c(cc1Cl)c(N1CCN(C(=O)C=C)C[C@@H]1C)nc(=O)n2-c1c(C)ccnc1C(C)C [Compound 3-20], the “anti-cell proliferation activity against KRAS G12C mutant type cells NCI-H358 (in words)” value [1] is reported as “significant anti-cell proliferation activity”, the IC50 [1] is reported as under 50 nM and the “anti-cell proliferation activity against KRAS G12C mutant type cells MIA PaCa-2 (in words)” value [2] is reported as “significant anti-cell proliferation activity”. The IC50 [2] was under 50 nM, the IC50 [3] was 10 nM and the “cell proliferation inhibitory activity of NCI-H358 compared with AMG510 (in words)” value ([3]; test 8) was “better than AMG510”. For the same compound, the “water and food intake, activity and body weight during the administration period (in words)” value (from here on “water and food intake”) [4] was “no significant abnormality was showed”, the “inhibition effect on the growth of subcutaneously transplanted tumors derived from pancreatic cancer MIA paca-2 cells in nude mice (in words)” value [5] was “significant inhibition effect” and the “Tumor inhibition rate (%)” value [5] was “+++ (“+++” represents a tumor inhibition rate of >80%)”. For the same compound, the “inhibitory activity on KRAS G12C enzyme compared with AMG510 (in words)” value [6] was “remarkable better” and the IC50 ([6]; 60 min incubation with enzyme, read-out: IC50 value of the compound on KRAS G12C enzyme activity) was 19 nM.
With C=CC(=O)N1CCN(c2nc(=O)n(-c3c(C)ccnc3C(C)C)c3nc(-c4c(F)cccc4C=C)c(Cl)cc23)[C@@H](C)C1 [Compound 3-6] the “anti-cell proliferation activity against KRAS G12C mutant type cells NCI-H358 (in words)” value [1] was “significant anti-cell proliferation activity”, the IC50 [1] was under 50 nM and the “anti-cell proliferation activity against KRAS G12C mutant type cells MIA PaCa-2 (in words)” value [2] was “significant anti-cell proliferation activity”. It also gave an IC50 [2] of under 50 nM, an IC50 [3] of 11 nM and an MTD at 5 days [4] of over 800 mg/kg. For the same compound, the “water and food intake” value [4] was “no significant abnormality was showed”, the “inhibition effect on the growth of subcutaneously transplanted tumors derived from pancreatic cancer MIA paca-2 cells in nude mice (in words)” value [5] was “significant inhibition effect” and the “Tumor inhibition rate (%)” value [5] was “+++ (“+++” represents a tumor inhibition rate of >80%)”. For the same compound, the MTD ([7]; both sexes, SD rats, single oral gavage, 500, 1000, 2000 mg/kg, read-out: maximum tolerated dose (MTD)) was at least 2000 mg/kg, the “death or morbidity after single dose (in words)” value [7] was “No animals in each group were dead or close to death” and the “water and food intake” value [8] was “no significant abnormality was showed”.
Compound [2H]C([2H])=Cc1ccccc1-c1nc2c(cc1Cl)c(N1CCN(C(=O)C=C)C[C@@H]1C)nc(=O)n2-c1c(C([2H])([2H])[2H])ccnc1C(C)C [Compound 4-8] has an IC50 [1] of under 50 nM, an IC50 [2] of under 50 nM and an MTD at 5 days [4] of over 800 mg/kg. The “water and food intake” value [4] was “no significant abnormality was showed”.
With CC(=O)Nc1cccc(-n2c(=O)n(C3CC3)c(=O)c3c(Nc4ccc(I)cc4F)n(C)c(=O)c(C)c32)c1 [Trametinib] the “Tumor inhibition rate (%)” value [9] was “+ (“+” represents a tumor inhibition rate of <130%)”.
In the case of C=CC(=O)N1CCN(c2nc(=O)n(-c3c(C)ccnc3C(C)C)c3nc(-c4c(O)cccc4F)c(F)cc23)[C@@H](C)C1 [AMG510], the IC50 [3] is listed as 41 nM, the “chromosome aberration effect test result (in words)” value [10] is listed as “positive result” and the “substrate for P-gp (in words)” value [11] is listed as “is a substrate”.
For CN(C)C/C=C/C(=O)Nc1cc2c(Nc3ccc(F)c(Cl)c3)ncnc2cc1O[C@H]1CCOC1 [Afatinib], the “Tumor inhibition rate (%)” value [9] was “+ (“+” represents a tumor inhibition rate of <130%)”.
For [2H]C([2H])=Cc1cccc(F)c1-c1nc2c(cc1F)c(N1CCN(C(=O)C=C)C[C@@H]1C)nc(=O)n2-c1c(C)ccnc1C(C)C [Compound 3-19], the “anti-cell proliferation activity against KRAS G12C mutant type cells NCI-H358 (in words)” value [1] was “significant anti-cell proliferation activity”, the IC50 [1] was under 50 nM and the “anti-cell proliferation activity against KRAS G12C mutant type cells MIA PaCa-2 (in words)” value [2] was “significant anti-cell proliferation activity”. It also gave an IC50 [2] of under 50 nM.
